According to US20120077737A1, “HEPATITIS C INHIBITOR COMPOUNDS” (priority 2009, published 2012):

Columns and labels:
[1] = system: HCV genotype 1a subgenomic replicon with NS3 resistance mutation R155K; assay: HCV replicon RNA replication assay, R155K 1a; format: cell-based, HCV genotype 1a (strain H77), Huh-7 cells; conditions: Hepatitis C virus, Huh-7, 72 h, read-out: R155K 1a Ec50 (nM)
[2] = system: HCV genotype 1b subgenomic replicon with NS3 resistance mutation D168V; assay: HCV replicon RNA replication assay, D168V 1b; format: cell-based, HCV genotype 1b (Con-1), Huh-7 cells; conditions: Hepatitis C virus, Huh-7, 72 h, read-out: D168V 1b Ec50 (nM)
[3] = system: HCV genotype 1a subgenomic replicon with NS3 resistance mutation D168V; assay: HCV replicon RNA replication assay, D168V 1a; format: cell-based, HCV genotype 1a (strain H77), Huh-7 cells; conditions: Hepatitis C virus, Huh-7, 72 h, read-out: D168V 1a Ec50 (nM)
[4] = system: HCVPV1a subgenomic replicon (wild type 1a); assay: HCV replicon RNA replication assay, wild type 1a; format: cell-based, HCV genotype 1a (strain H77), Huh-7 cells; conditions: Hepatitis C virus; Table 1; luciferase replicon, Huh-7, 72 h; read-out: WT 1a Ec50
[5] = system: HCVPV1b subgenomic replicon (wild type 1b); assay: HCV replicon RNA replication assay, wild type 1b; format: cell-based, HCV genotype 1b (Con-1), Huh-7 cells; conditions: Hepatitis C virus; Table 1; luciferase replicon, Huh-7, 72 h; read-out: WT 1b Ec50

| SMILES | EC50 [1] [nM] | EC50 [2] [nM] | EC50 [3] [nM] | EC50 [4] [pM] | EC50 [5] [pM] |
| --- | --- | --- | --- | --- | --- |
| COc1c(F)ccc2c(O[C@@H]3C[C@H]4C(=O)N[C@]5(C(=O)NS(=O)(=O)C6(C)CC6)C[C@H]5/C=C\CCCCC[C@H](NC(=O)c5ccn(C(F)F)n5)C(=O)N4C3)cc(OC(C)C)nc12 [Compound 1027, (2R,6S,12Z,13aS,14aR,16aS)-6-({[1-(difluoromethyl)-1H-pyrazol-3-yl]carbonyl}amino)-2-{[7-fluoro-8-methoxy-2-(propan-2-yloxy)quinolin-4-yl]oxy}-N-[(1-methylcyclopropyl)sulfonyl]-5,16-dioxo-1,2,3,6,7,8,9,10,11,13a,14,15,16,16a-tetradecahydrocyclopropa[e]pyrrolo[1,2-a][1,4]diazacyclopentadecine-14a(5H)-carboxamide] | 4.7 | 0.39 | 2.2 | 470 | 330 |
| CNC(=O)Cn1ccc(C(=O)N[C@H]2CCCCC/C=C\[C@@H]3C[C@@]3(C(=O)NS(=O)(=O)C3(C)CC3)NC(=O)[C@@H]3C[C@@H](Oc4cc(OC(C)C)nc5c(C)c(OC)ccc45)CN3C2=O)n1 [Compound 1019, (2R,6S,12Z,13aS,14aR,16aS)-2-{[7-methoxy-8-methyl-2-(propan-2-yloxy)quinolin-4-yl]oxy}-6-[({1-[2-(methylamino)-2-oxoethyl]-1H-pyrazol-3-yl}carbonyl)amino]-N-[(1-methylcyclopropyl)sulfonyl]-5,16-dioxo-1,2,3,6,7,8,9,10,11,13a,14,15,16,16a-tetradecahydrocyclopropa[e]pyrrolo[1,2-a][1,4]diazacyclopentadecine-14a(5H)-carboxamide] | 1.6 | 1.8 | 5.4 | 2000 | 1500 |
| COc1c(F)ccc2c(O[C@@H]3C[C@H]4C(=O)N[C@]5(C(=O)NS(=O)(=O)C6(C)CC6)C[C@H]5/C=C\CCCCC[C@H](NC(=O)c5ccn(C(C)C)n5)C(=O)N4C3)cc(OC(C)C)nc12 [Compound 1023, (2R,6S,12Z,13aS,14aR,16aS)-2-{[7-fluoro-8-methoxy-2-(propan-2-yloxy)quinolin-4-yl]oxy}-N-[(1-methylcyclopropyl)sulfonyl]-5,16-dioxo-6-({[1-(propan-2-yl)-1H-pyrazol-3-yl]carbonyl}amino)-1,2,3,6,7,8,9,10,11,13a,14,15,16,16a-tetradecahydrocyclopropa[e]pyrrolo[1,2-a][1,4]diazacyclopentadecine-14a(5H)-carboxamide] | 3.1 | 0.52 | 0.83 | 370 | 400 |
| Cc1c(Cl)ccc2c(O[C@@H]3C[C@H]4C(=O)N[C@]5(C(=O)NS(=O)(=O)C6(C)CC6)C[C@H]5/C=C\CCCCC[C@H](NC(=O)c5ccn(C)n5)C(=O)N4C3)cc(OC(C)C)nc12 [Compound 1003, (2R,6S,12Z,13aS,14aR,16aS)-2-{[7-chloro-8-methyl-2-(propan-2-yloxy)quinolin-4-yl]oxy}-N-[(1-methylcyclopropyl)sulfonyl]-6-{[(1-methyl-1H-pyrazol-3-yl)carbonyl]amino}-5,16-dioxo-1,2,3,6,7,8,9,10,11,13a,14,15,16,16a-tetradecahydrocyclopropa[e]pyrrolo[1,2-a][1,4]diazacyclopentadecine-14a(5H)-carboxamide] | 7.7 | 0.12 | 6.9 | 240 | 210 |
| COc1c(F)ccc2c(O[C@@H]3C[C@H]4C(=O)N[C@]5(C(=O)NS(=O)(=O)C6(C)CC6)C[C@H]5/C=C\CCCCC[C@H](NC(=O)c5ccn(CC(F)F)n5)C(=O)N4C3)cc(OC(C)C)nc12 [Compound 1022, (2R,6S,12Z,13aS,14aR,16aS)-6-({[1-(2,2-difluoroethyl)-1H-pyrazol-3-yl]carbonyl}amino)-2-{[7-fluoro-8-methoxy-2-(propan-2-yloxy)quinolin-4-yl]oxy}-N-[(1-methylcyclopropyl)sulfonyl]-5,16-dioxo-1,2,3,6,7,8,9,10,11,13a,14,15,16,16a-tetradecahydrocyclopropa[e]pyrrolo[1,2-a][1,4]diazacyclopentadecine-14a(5H)-carboxamide] | 1.3 | 0.62 | 0.97 | 420 | 410 |
| CC(C)Oc1cc(O[C@@H]2C[C@H]3C(=O)N[C@]4(C(=O)NS(=O)(=O)C5(C)CC5)C[C@H]4/C=C\CCCCC[C@H](NC(=O)c4ccn(C)n4)C(=O)N3C2)c2ccc(Cl)c(Cl)c2n1 [Compound 1025, (2R,6S,12Z,13aS,14aR,16aS)-2-{[7,8-dichloro-2-(propan-2-yloxy)quinolin-4-yl]oxy}-N-[(1-methylcyclopropyl)sulfonyl]-6-{[(1-methyl-1H-pyrazol-3-yl)carbonyl]amino}-5,16-dioxo-1,2,3,6,7,8,9,10,11,13a,14,15,16,16a-tetradecahydrocyclopropa[e]pyrrolo[1,2-a][1,4]diazacyclopentadecine-14a(5H)-carboxamide] | 9.3 | 0.11 | 3.8 | 220 | 170 |
| COc1ccc2c(O[C@@H]3C[C@H]4C(=O)N[C@]5(C(=O)NS(=O)(=O)C6(C)CC6)C[C@H]5/C=C\CCCCC[C@H](NC(=O)c5ccc(C(C)(C)O)s5)C(=O)N4C3)cc(OC(C)C)nc2c1C [Compound 1020, (2R,6S,12Z,13aS,14aR,16aS)-6-({[5-(2-hydroxypropan-2-yl)thiophen-2-yl]carbonyl}amino)-2-{[7-methoxy-8-methyl-2-(propan-2-yloxy)quinolin-4-yl]oxy}-N-[(1-methylcyclopropyl)sulfonyl]-5,16-dioxo-1,2,3,6,7,8,9,10,11,13a,14,15,16,16a-tetradecahydrocyclopropa[e]pyrrolo[1,2-a][1,4]diazacyclopentadecine-14a(5H)-carboxamide] | 2.4 | 0.39 | 3.7 | 860 | 660 |
| COc1ccc2c(O[C@@H]3C[C@H]4C(=O)N[C@]5(C(=O)NS(=O)(=O)C6(C)CC6)C[C@H]5/C=C\CCCCC[C@H](NC(=O)c5cnn(CC(F)F)n5)C(=O)N4C3)cc(OC(C)C)nc2c1C [Compound 1010, (2R,6S,12Z,13aS,14aR,16aS)-6-({[2-(2,2-difluoroethyl)-2H-1,2,3-triazol-4-yl]carbonyl}amino)-2-{[7-methoxy-8-methyl-2-(propan-2-yloxy)quinolin-4-yl]oxy}-N-[(1-methylcyclopropyl)sulfonyl]-5,16-dioxo-1,2,3,6,7,8,9,10,11,13a,14,15,16,16a-tetradecahydrocyclopropa[e]pyrrolo[1,2-a][1,4]diazacyclopentadecine-14a(5H)-carboxamide] | 4.6 | 0.26 | 5.6 | 300 | 370 |
| COc1ccc2c(O[C@@H]3C[C@H]4C(=O)N[C@]5(C(=O)NS(=O)(=O)C6(C)CC6)C[C@H]5/C=C\CCCCC[C@H](NC(=O)c5cnn(C)n5)C(=O)N4C3)cc(OC(C)C)nc2c1C [Compound 1006, (2R,6S,12Z,13aS,14aR,16aS)-2-{[7-methoxy-8-methyl-2-(propan-2-yloxy)quinolin-4-yl]oxy}-N-[(1-methylcyclopropyl)sulfonyl]-6-{[(2-methyl-2H-1,2,3-triazol-4-yl)carbonyl]amino}-5,16-dioxo-1,2,3,6,7,8,9,10,11,13a,14,15,16,16a-tetradecahydrocyclopropa[e]pyrrolo[1,2-a][1,4]diazacyclopentadecine-14a(5H)-carboxamide] | 2.2 | 0.17 | 9.6 | 190 | 180 |
